Measurements reported in patent US5041567A, “Antibacterial monic acid derivatives” (Beecham Group plc, priority 1982, dated 1991).
Converted amounts (≈) assume the structure as drawn.

Columns and labels:
M. suipneumoniae NB12 = assay: MIC against mycoplasma in vitro; assay type: cell-based; conditions: Mesomycoplasma hyopneumoniae, NB12, 144 h
M. suipneumoniae Str. 11 = assay: MIC against mycoplasma in vitro; assay type: cell-based; conditions: Mesomycoplasma hyopneumoniae, 144 h; M. suipneumoniae Str. 11; 6 days, 37° C.; read-out: MIC
[1] = tested on: M. suipneumoniae PW/C/210; assay: MIC against mycoplasma in vitro; assay type: cell-based; conditions: Mesomycoplasma hyopneumoniae, 144 h
M. suipneumoniae UCD 1 = assay: MIC against mycoplasma in vitro; assay type: cell-based; conditions: Mesomycoplasma hyopneumoniae, UCD1, 144 h
M. bovis NCTC 10131 = assay: microbe, parasite or virus in culture; assay type: cell-based; conditions: NCTC10131, 144 h
[2] = tested on: M. bovigenitalium ATCC 14173; assay: MIC against mycoplasma in vitro; assay type: cell-based; conditions: 144 h
M. gallisepticum S6 = assay: MIC against mycoplasma in vitro; assay type: cell-based; conditions: Mycoplasmoides gallisepticum, S6, 144 h
E. coli NCTC 10418 [3] = assay: MIC against human bacteria in vitro; assay type: cell-based; conditions: Escherichia coli, NCTC10418; E. coli NCTC 10418; agar with 5% chocolated horse blood, 18 hours, 37° C.; read-out: MIC
[4] = tested on: Ps. aeruginosa NCTC 10662; assay: MIC against human bacteria in vitro; assay type: cell-based; conditions: Pseudomonas aeruginosa, NCTC10662; Ps. aeruginosa NCTC 10662; 5% chocolated horse blood agar, 18 hours; read-out: MIC
[5] = tested on: Haemophilus influenzae Wy21; assay: MIC against human bacteria in vitro; assay type: cell-based; conditions: Haemophilus influenzae Wy21; 5% chocolated horse blood agar, 18 hours; read-out: MIC
[6] = tested on: Corynebacterium xerosis 9755; assay: MIC against human bacteria in vitro; assay type: cell-based; conditions: Corynebacterium xerosis 9755; 5% chocolated horse blood agar, 18 hours; read-out: MIC
Strep. agalactiae 2788-B = assay: MIC against human bacteria in vitro; assay type: cell-based; conditions: Streptococcus agalactiae; Strep. agalactiae 2788-B; 5% chocolated horse blood agar, 18 hours; read-out: MIC
E. coli NCTC 10418 [7] = assay: MIC against veterinary bacteria in vitro; conditions: Escherichia coli, NCTC10418, 18 h
Description: (§1) The activity of the compounds of the Examples against various veterinarily important bacteria, was assayed in vitro using two-fold serial dilutions in Diagnostic Sensitivity Test Agar inoculated with 10^4 organisms.

S. dublin S7 = assay: MIC against veterinary bacteria in vitro; conditions: Salmonella enterica, S7, 18 h
Description: as §1

Bord. bronchiseptica B09 = assay: MIC against veterinary bacteria in vitro; conditions: Bordetella bronchiseptica, B09, 18 h
Description: as §1

Past. multocida PA1 = assay: MIC against veterinary bacteria in vitro; conditions: Pasteurella multocida, PA1, 18 h
Description: as §1

Past. haemolytica PA5 = assay: MIC against veterinary bacteria in vitro; conditions: Mannheimia haemolytica, PA5, 18 h
Description: as §1

[8] = tested on: Erysipelothrix rhusiopathiae NCTC 8163; assay: MIC against veterinary bacteria in vitro; conditions: Erysipelothrix rhusiopathiae, NCTC8163, 18 h
Description: as §1

[9] = tested on: Corynebacterium pyogenes CY1; assay: MIC against veterinary bacteria in vitro; conditions: CY1, 18 h
Description: as §1

Staph. aureus Oxford = assay: MIC against veterinary bacteria in vitro; conditions: Staphylococcus aureus, 18 h
Description: as §1

Strep. dysgalactiae SPD1 = assay: MIC against veterinary bacteria in vitro; conditions: Streptococcus dysgalactiae, SPD1, 18 h
Description: as §1

Strep. agalactiae SPA1 = assay: MIC against veterinary bacteria in vitro; conditions: Streptococcus agalactiae, SPA1, 18 h
Description: as §1

B. subtilis ATCC 6633 = assay: MIC against veterinary bacteria in vitro; conditions: Bacillus subtilis, ATCC6633, 18 h
Description: as §1

`C/C(=C\c1ncc(-c2cccc([S+](C)[O-])c2)o1)C[C@@H]1OC[C@H](C[C@@H]2O[C@H]2[C@@H](C)[C@H](C)O)[C@@H](O)[C@H]1O` (some centres unmarked) [Example 25, 5-m-Methylsulphinylphenyl-2-(1-normon-2-yl)oxazole A] gave an MIC (M. suipneumoniae NB12) of 0.25 µg/mL (≈ 0.494 µM), an MIC (M. suipneumoniae Str. 11) of 0.5 µg/mL (≈ 0.989 µM) and an MIC [1] of 0.25 µg/mL (≈ 0.494 µM). It also gave an MIC (M. suipneumoniae UCD 1) of 1 µg/mL (≈ 1.98 µM), an MIC (M. bovis NCTC 10131) of 0.025 µg/mL (≈ 0.0494 µM) and an MIC [2] of 0.25 µg/mL (≈ 0.494 µM). For the same molecule, the MIC (M. gallisepticum S6) was 2.5 µg/mL (≈ 4.94 µM), the MIC (E. coli NCTC 10418 [3]) was over 128 µg/mL and the MIC [4] was over 128 µg/mL. The MIC [5] was 2 µg/mL (≈ 3.96 µM), the MIC [6] was 128 µg/mL (≈ 253 µM) and the MIC (Strep. agalactiae 2788-B) was 2 µg/mL (≈ 3.96 µM). It also gave an MIC (E. coli NCTC 10418 [7]) of over 80 µg/mL, an MIC (S. dublin S7) of over 80 µg/mL and an MIC (Bord. bronchiseptica B09) of 40 µg/mL (≈ 79.1 µM). For the same molecule, the MIC (Past. multocida PA1) was 5 µg/mL (≈ 9.89 µM), the MIC (Past. haemolytica PA5) was 80 µg/mL (≈ 158 µM) and the MIC [8] was over 80 µg/mL. The MIC [9] was over 80 µg/mL, the MIC (Staph. aureus Oxford) was 20 µg/mL (≈ 39.6 µM) and the MIC (Strep. dysgalactiae SPD1) was 1.25 µg/mL (≈ 2.47 µM). It also gave an MIC (Strep. agalactiae SPA1) of 2.5 µg/mL (≈ 4.94 µM) and an MIC (B. subtilis ATCC 6633) of 2.5 µg/mL (≈ 4.94 µM).
